Experimental data as given in US20060178307A1, “Modulation of NMDA receptor currents via orexin receptor and/or CRF receptor” (priority 2005, published 2006).
Entries after “also recorded” stand apart in the source; their conditions may differ. Where no end group is shown, it is not given here.

How the values were obtained:
[1] = test system: NMDAR-mediated EPSCs in VTA dopamine neurons; experiment: Evoked NMDAR-mediated EPSCs, whole-cell voltage clamp at +40 mV, VTA neurons in midbrain slices; type: cell-based, rat
Experimental: Excitatory postsynaptic currents (EPSCs) were recorded from VTA neurons in rat midbrain slices. EPSCs were evoked while holding neurons in voltage clamp at +40 mV. Measurements were taken 20 ms after the stimulus artifact, a time point at which the glutamatergic EPSC is mediated purely by NMDARs.
The patch pipette was loaded with the PLC inhibitor, U-73122 (1 μM, FIG. 2A, C, n=6) or the PKC inhibitor, chelerythrin (1 μM, FIG. 1A, B, n=6). […] Next, the protein kinase A inhibitor, PKI (20 μM, FIG. 2A, F, n=8) or Rp-cAMPs, a blocker of cAMP (100 μM, FIG. 2A, E, n=5) was added to the patch pipette.
Activation of PKC is implicated in NMDAR-dependent long-term potentiation (Malinow et al., 1989) and it modulates NMDAR trafficking to the membrane (Lan et al., 2001; Scott et al., 2001; Fong et al., 2002). NMDARs can translocate from intracellular or extrasynaptic pools to synaptic sites (Lan et al., 2001; Tovar and Westbrook, 2002). […] In a separate group of slices, orexin A (100 nM, n=6) was applied for 5 min during the washout period.
All of the electrophysiological recordings were performed in rats ranging from P21 to P30. Briefly, rats were anesthetized with halothane and sacrificed. Horizontal sections of the VTA ([…]) were prepared with a vibratome (Leica, Nussloch, Germany). Slices were placed in a holding chamber and allowed to recover for at least 1 hour before being placed in the recording chamber and superfused with bicarbonate-buffered solution (ACSF) saturated with 95% O2/5% CO2 and containing (in mM): 119 NaCl, 1.6 KCl, 1.0 NaH2PO4, 1.3 MgCl2, 2.5 CaCl2, 26.2 NaHCO3 and 11 glucose (at 32-34° C.). Picrotoxin (100 μM) was added to block GABAA receptor-mediated inhibitory postsynaptic currents. Cells were visualized using infrared differential interference contrast video microscopy. Whole-cell voltage clamp recordings were made using an Axopatch 1D amplifier (Axon Instruments, Union City, Calif.). Electrodes (2.8-4.0 MΩ) contained (in mM): 120 Cesium Methansulfonate, 20 HEPES, 0.4 EGTA, 2.8 NaCl, 5 TEA-Cl, 2.5 MgATP, and 0.25 NaGTP, pH 7.2-7.3 (270-285 mOsm). Series resistance (10-40 MΩ) and input resistance were monitored on-line with a 4-mV depolarizing step (50 ms) given just after every afferent stimulus. Dopaminergic VTA neurons were identified by the presence of a large Ih current (Lacey et al., 1990; Johnson and North, 1992) and, in some cases, tyrosine hydroxylase labeling. A bipolar stimulating electrode was placed 100-300 μm rostral to the recording electrode and was used to stimulate excitatory afferents at 0.1 Hz. Neurons were voltage-clamped at −70 mV and +40 mV to record AMPAR- and NMDAR-mediated EPSCs.

[2] = test system: AMPAR/NMDAR ratio of EPSCs in VTA dopamine cells; experiment: AMPAR/NMDAR ratio in VTA slices 24 hr after 5-day in vivo treatment; design: species or system rat; conditions: cocaine 15 mg/kg, 5-day treatment, n=4
Experimental: The next study investigated whether orexin signaling in the VTA is required for the long-term plasticity associated with the development of behavioral sensitization. Long-term synaptic plasticity at excitatory synapses on VTA neurons was examined 24 hr after a 5-day treatment of cocaine (15 mg/kg) or saline (0.9%), a time course shown to induce long-lasting locomotor sensitization to cocaine (Thomas et al., 2001), with or without the OXR1 antagonist, SB 334867 (10 mg/kg, FIG. 5). To assay for synaptic plasticity, the relative contributions of AMPARs and NMDARs to EPSCs recorded in VTA dopamine cells were compared. Consistent with the potentiation observed following acute and 7-day cocaine treatments (Borgland et al., 2004), 5-day treatment with cocaine potentiated the AMPAR/NMDAR ratio compared to saline controls (FIG. 5A, saline: 0.4±0.07, n=4; cocaine: 0.8±0.1, n=4, p<0.05). This potentiation of synaptic plasticity was blocked by 5-day treatment with the OXR1 antagonist, SB 334867, administered 15 min prior to cocaine or saline (FIG. 5A, saline+SB334867: 0.4±0.02, n=5 vs. cocaine+SB334867: 0.5±0.08, n=11, p>0.05). Since OXR1 antagonists block cocaine-mediated potentiation of the AMPAR/NMDAR ratio, orexin A may either facilitate cocaine-mediated synaptic plasticity or enhance synaptic transmission itself. A 5-min orexin A application was performed to determine whether this caused changes in AMPAR/NMDAR ratio either 15 min or 3-4 hours after application (FIG. 5B).
To calculate the AMPAR/NMDAR ratio, an average of 12 EPSCs at +40 mV was computed before and after application of the NMDAR blocker, AP5 (50 μM) for 5 min. NMDAR responses were calculated by subtracting the average response in the presence of AP5 (AMPAR only) from that seen in its absence; the peak of the AMPAR EPSC was divided by the peak of the NMDAR EPSC to yield an AMPAR/NMDAR ratio.
Male Sprague-Dawley Rats (P21-P30; Charles River, N.C.) were singly housed with food and water available ad libitum. A 12 hr light/dark cycle was used, with the lights on at 7:00 A.M. All cocaine injections and behavioral testing were performed during the light cycle for consecutive days. The four treatment groups consisted of rats given 5 daily i.p. injections of SB 334867 (10 mg/kg) 15 min preceding i.p. injection of cocaine (15 mg/kg) or saline (0.9% NaCl), or i.p. injections of vehicle (10% DMSO and 25% β-hydroxy cyclodextrin in saline) 15 min preceding i.p. injection of cocaine or saline. […] Locomotor activity was measured in 17″×17″ chambers lined with three 16-beam I/R arrays. […] Distance traveled was measured using Open Field Activity Software (Med Associates, Inc) and analyzed for estimates of locomotion based on the movement of a given distance and resting delay (movement in a given period of time).

locomotor activity [3] = experiment: Locomotor sensitization to cocaine, i.p. OXR1 antagonist, open field; type: in vivo, Sprague-Dawley rats; conditions: n=13
Experimental: To determine if orexin signaling plays a role in behavioral sensitization to cocaine, either the OXR1 antagonist SB 334867 (10 mg/kg, i.p.) or vehicle was injected 15 min prior to injecting cocaine (15 mg/kg, i.p) or saline (0.9%), and then the rats were placed in an open field chamber to measure locomotor activity for 1 hour each day for 5 days.
Therefore, to determine if expression of cocaine sensitization requires release of orexin acting at the OXR1 receptor, the OXR1 antagonist SB 334867 (10 mg/kg) was injected with cocaine (15 mg/kg) on day 6 into either cocaine-sensitized or saline-treated rats.
Male Sprague-Dawley Rats (P21-P30; Charles River, N.C.) were singly housed with food and water available ad libitum. A 12 hr light/dark cycle was used, with the lights on at 7:00 A.M. All cocaine injections and behavioral testing were performed during the light cycle for consecutive days. The four treatment groups consisted of rats given 5 daily i.p. injections of SB 334867 (10 mg/kg) 15 min preceding i.p. injection of cocaine (15 mg/kg) or saline (0.9% NaCl), or i.p. injections of vehicle (10% DMSO and 25% β-hydroxy cyclodextrin in saline) 15 min preceding i.p. injection of cocaine or saline. All animals were habituated to the photocell boxes (Med Associates, St. Albans, Vt.) for 2 hours prior to the start of the experiment. All animals were further habituated to the photocell boxes for 30 min prior to 60 min testing session. Locomotor activity was measured in 17″×17″ chambers lined with three 16-beam I/R arrays. A 50 ms scanning rate was used for measurement of beams broken. Distance traveled was measured using Open Field Activity Software (Med Associates, Inc) and analyzed for estimates of locomotion based on the movement of a given distance and resting delay (movement in a given period of time).

locomotor activity [4] = experiment: Locomotor sensitization to cocaine, intra-VTA OXR1 antagonist, 7-day paradigm; type: in vivo, Sprague-Dawley rats; conditions: control animals: intra-VTA vehicle + cocaine 15 mg/kg
Experimental: Male Sprague-Dawley rats (250 grams) were implanted with bilateral cannulae directed at the VTA (AP, −5.2; ML, ±0.5, DV −8.0). Following recovery from surgery, animals were tested in a cocaine sensitization assay similar to that used for systemic administration of the OXR1 antagonist, but with two changes: a 7-day sensitization paradigm was used, and the OXR1 antagonist SB 334867 was microinjected directly into the VTA (6 μg/hemisphere in 300 nL solution composed of 10% DMSO in water). All other methods for habituation and data collection were identical to that described above. Rats were deeply anesthetized with pentobarbital, and perfused with a 10% formaldehyde solution. Brains were cryoprotected in 25% sucrose, 40 μm coronal sections were cut on a freezing microtome, and sections were mounted, dried and coverslipped. Injection sites were located under a light microscope and recorded on atlas figures adapted from Paxinos and Watson (1997).

[5] = test system: NMDAR-mediated currents in VTA dopamine cells; experiment: CRF-related peptides on NMDAR-mediated currents at excitatory synapses onto VTA dopamine cells; type: cell-based; conditions: mammalian brain

## COc1ccc2c(c[n+](C)c3c4cc5c(cc4ccc23)OCO5)c1OC [chelerythrin]
[1]; inhibitor 1 μM in patch pipette, n=6
  effect on potentiation of NMDAR-mediated EPSCs by 100 nM orexin A: completely blocked

## COC(=O)[C@H]1[C@@H](OC(=O)c2ccccc2)C[C@@H]2CC[C@H]1N2C [cocaine]
[2]
  AMPAR/NMDAR ratio: 0.8±0.1
Locomotor activity [3]; cocaine-only-treated rats, 15 mg/kg i.p.
  distance traveled on day 5: 20347±5643 cm
Locomotor activity [3]; cocaine-treated rats given vehicle
  locomotor activity on day 1: 5692±1579 cm
Locomotor activity [4]
  mean locomotor distance on day 7: 34162±4477 cm

## CC(C(O)c1ccc(O)cc1)N1CCC(Cc2ccccc2)CC1 (stereo not shown) [ifenprodil]
[1]; bath-applied 3 μM
  remaining current after application: 71±6%
[1]; ifenprodil 3 μM bath-applied
  effect on orexin A-mediated potentiation of NMDAR EPSCs: no significant effect; also recorded: not affected

## Urocortin II: peptide that does not bind CRF-BP (IVLSLDVPIGLLQILLEQARARAAREQATTNARILARVGHC; ends and bridges not checked; UniProt Q96RP3 72-112, looked up)
[5]
  potentiation of NMDAR currents: do not potentiate

## Urocortin: may be the endogenous CRF-R2 ligand and also binds CRF-BP (DNPSLSIDLTFHLLRTLLELARTQSQRERAEQNRIIFDSV; ends and bridges not checked; UniProt P55089 83-122, looked up)
[5]
  potentiation of NMDAR currents: mimics CRF

## ovine CRF: CRF form that does not bind CRF-BP (SQEPPISLDLTFHLLREVLEMTKADQLAQQAHSNRKLLDIA; ends and bridges not checked; UniProt P01142 148-188, looked up)
[5]
  potentiation of NMDAR currents: do not potentiate
